# Measurements taken from BigSolDB 2.1.
smiles,measurement,setting,value
Oc1ccc(/C=C/c2cc(O)cc(O)c2)cc1,solubility (mole fraction),"in THF, 278.2 K",0.104
same,solubility (mole fraction),"in THF, 288.2 K",0.106
same,solubility (mole fraction),"in THF, 298.2 K",0.109
same,solubility (mole fraction),"in THF, 308.2 K",0.112
same,solubility (mole fraction),"in THF, 318.2 K",0.114
same,solubility (mole fraction),"in acetone, 278.2 K",0.0849
same,solubility (mole fraction),"in acetone, 288.2 K",0.0859
same,solubility (mole fraction),"in acetone, 298.2 K",0.0866
same,solubility (mole fraction),"in acetone, 308.2 K",0.0874
same,solubility (mole fraction),"in acetone, 318.2 K",0.0886
same,solubility (mole fraction),"in ethanol, 278.2 K",0.0117
same,solubility (mole fraction),"in ethanol, 288.2 K",0.0139
same,solubility (mole fraction),"in ethanol, 298.2 K",0.0169
same,solubility (mole fraction),"in ethanol, 308.2 K",0.0198
same,solubility (mole fraction),"in ethanol, 318.2 K",0.0223
same,solubility (mole fraction),"in ethyl acetate, 278.2 K",0.0062
same,solubility (mole fraction),"in ethyl acetate, 288.2 K",0.0106
same,solubility (mole fraction),"in ethyl acetate, 298.2 K",0.0164
same,solubility (mole fraction),"in ethyl acetate, 308.2 K",0.0214
same,solubility (mole fraction),"in ethyl acetate, 318.2 K",0.0254
same,solubility (mole fraction),"in isopropanol, 278.2 K",0.0053
same,solubility (mole fraction),"in isopropanol, 288.2 K",0.0062
same,solubility (mole fraction),"in isopropanol, 298.2 K",0.009
same,solubility (mole fraction),"in isopropanol, 308.2 K",0.011
same,solubility (mole fraction),"in isopropanol, 318.2 K",0.0138
same,solubility (mole fraction),"in methanol, 278.2 K",0.0108
same,solubility (mole fraction),"in methanol, 288.2 K",0.012
same,solubility (mole fraction),"in methanol, 298.2 K",0.0135
same,solubility (mole fraction),"in methanol, 308.2 K",0.0151
same,solubility (mole fraction),"in methanol, 318.2 K",0.0166
same,solubility (mole fraction),"in n-butanol, 278.2 K",0.0041
same,solubility (mole fraction),"in n-butanol, 288.2 K",0.0058
same,solubility (mole fraction),"in n-butanol, 298.2 K",0.0083
same,solubility (mole fraction),"in n-butanol, 308.2 K",0.0103
same,solubility (mole fraction),"in n-butanol, 318.2 K",0.0122
same,solubility (mole fraction),"in n-hexanol, 278.2 K",0.004
same,solubility (mole fraction),"in n-hexanol, 288.2 K",0.0052
same,solubility (mole fraction),"in n-hexanol, 298.2 K",0.0075
same,solubility (mole fraction),"in n-hexanol, 308.2 K",0.0087
same,solubility (mole fraction),"in n-hexanol, 318.2 K",0.0108
same,solubility (mole fraction),"in n-pentanol, 278.2 K",0.004
same,solubility (mole fraction),"in n-pentanol, 288.2 K",0.0055
same,solubility (mole fraction),"in n-pentanol, 298.2 K",0.0093
same,solubility (mole fraction),"in n-pentanol, 308.2 K",0.0109
same,solubility (mole fraction),"in n-pentanol, 318.2 K",0.0143
same,solubility (mole fraction),"in n-propanol, 278.2 K",0.0068
same,solubility (mole fraction),"in n-propanol, 288.2 K",0.0088
same,solubility (mole fraction),"in n-propanol, 298.2 K",0.0113
same,solubility (mole fraction),"in n-propanol, 308.2 K",0.0128
same,solubility (mole fraction),"in n-propanol, 318.2 K",0.0153
